Assay results: patent US7897629B2, “Therapeutic compounds” (Allergan, Inc., priority 2006, dated 2011)

Assays:
[1] = molecular target: T1, EP2 (Homo sapiens, UniProt P43116); experiment: EP2 Ca2+ signal assay; format: cell-based
[2] = molecular target: T1, EP2; experiment: EP2 cAMP functional assay; format: cell-based
[3] = molecular target: T1, EP2; experiment: EP2 binding assay

T1 sequence (P43116 whole entry): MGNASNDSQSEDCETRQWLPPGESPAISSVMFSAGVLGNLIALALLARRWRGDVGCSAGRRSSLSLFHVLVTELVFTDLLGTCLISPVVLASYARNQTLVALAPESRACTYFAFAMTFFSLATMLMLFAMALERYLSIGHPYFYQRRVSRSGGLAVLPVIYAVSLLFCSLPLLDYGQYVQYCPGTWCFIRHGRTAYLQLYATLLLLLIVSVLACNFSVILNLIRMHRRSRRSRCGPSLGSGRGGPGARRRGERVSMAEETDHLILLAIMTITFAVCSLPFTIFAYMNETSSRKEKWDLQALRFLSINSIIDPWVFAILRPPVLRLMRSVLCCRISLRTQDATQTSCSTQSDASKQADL

Row | SMILES | EC50 [1] [nM] | EC50 [2] [nM] | EC50 [3] [nM]
1 | CCCCCC(O)c1ccc(N2C(COCc3ccc(C(=O)O)s3)CCS2(=O)=O)cc1 (stereo not drawn) [Compound 15] | 8320 | 115 | 2920
2 | CCCCCC(=O)c1ccc(N2C(COCc3ccc(C(=O)O)s3)CCS2(=O)=O)cc1 (stereo not drawn) [Compound 17] | 5420 | 98 | 1200
